These are literature values, as cited in patent publication US20200237920A1, “STABLE INJECTABLE PHARMACEUTICAL COMPOSITION OF NEUROKININ 1 RECEPTOR ANTAGONIST AND PROCESS FOR PREPARATION THEREOF” (PHARMATHEN S.A., priority 2012, published 2020).

Series [1] deals with serotonin, dopamine or corticosteroid receptors.

`C[C@@H](O[C@H]1OCCN(Cc2n[nH]c(=O)[nH]2)[C@H]1c1ccc(F)cc1)c1cc(C(F)(F)F)cc(C(F)(F)F)c1` [Aprepitant]: the “affinity for serotonin, dopamine or corticosteroid receptors (in words)” value in series [1] is listed as “little or no affinity”.
In the case of `CNC[C@H](O)[C@@H](O)[C@H](O)[C@H](O)CO.CNC[C@H](O)[C@@H](O)[C@H](O)[C@H](O)CO.C[C@@H](O[C@H]1OCCN(Cc2nn(P(=O)(O)O)c(=O)[nH]2)[C@H]1c1ccc(F)cc1)c1cc(C(F)(F)F)cc(C(F)(F)F)c1` [Fosaprepitant Dimeglumine], the “solubility in water (in words)” value was “freely soluble in water”.
